The results in this text go back to article PMC10840350 (Redox Biology, 2024).

Data set [1] addresses T1, TXNRD1 (thioredoxin reductase 1) (Rattus norvegicus, UniProt O89049).
T1 sequence (O89049 1-499): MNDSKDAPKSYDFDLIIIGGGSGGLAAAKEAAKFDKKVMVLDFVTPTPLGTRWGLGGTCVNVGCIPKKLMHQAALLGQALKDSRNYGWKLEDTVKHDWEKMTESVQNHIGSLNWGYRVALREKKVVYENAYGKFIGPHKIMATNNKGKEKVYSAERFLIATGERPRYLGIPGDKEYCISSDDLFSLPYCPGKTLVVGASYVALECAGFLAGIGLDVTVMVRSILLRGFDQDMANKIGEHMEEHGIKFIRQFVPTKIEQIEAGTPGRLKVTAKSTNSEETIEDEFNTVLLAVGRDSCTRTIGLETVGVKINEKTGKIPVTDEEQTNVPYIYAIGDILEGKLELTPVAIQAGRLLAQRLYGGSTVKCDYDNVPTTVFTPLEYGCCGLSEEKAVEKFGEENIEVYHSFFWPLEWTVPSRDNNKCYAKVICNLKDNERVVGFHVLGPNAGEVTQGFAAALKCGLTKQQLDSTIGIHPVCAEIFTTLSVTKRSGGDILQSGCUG
Kind of data set: […] min incubation, residual activity by DTNB reduction assay. Particulars: 0.25 h, read-out: % residual activity at 0.5 μM. The format is biochemical.

Data set [2] addresses T1, TXNRD1 (thioredoxin reductase 1). Described as above. The format is biochemical.

Regarding `COc1ccc([N+](=O)[O-])c(S(=O)(=O)c2ccc(Cl)cc2)n1` [TRi-1], in data set [1], the remaining activity at 0.5 µM was roughly 30%.
Regarding `[NH2][Pt]([NH2])([Cl])[Cl]` [cisplatin], the “60 min incubation, residual activity by DTNB reduction assay” value in data set [2] was “the inhibition of auranofin and cisplatin on TXNRD1 is not significantly affected by guiding bar mutants”.
